Assay results reported in PubChem BioAssay AID1259407 (Chemical Carcinogenesis Research Information System (CCRIS), 2018).
Active and inactive are the calls of the source. No rule for the calls is given here.

Test system: CCRIS mutagenicity, Ames/micronucleus/aberration tests
Assay: CCRIS mutagenicity studies
[1] = Test System: AMES SALMONELLA TYPHIMURIUM, Strain/Indicator: TA98, Metabolic Activation: NONE, Method: STANDARD PLATE
[2] = Test System: AMES SALMONELLA TYPHIMURIUM, Strain/Indicator: TA100, Metabolic Activation: NONE, Method: STANDARD PLATE
[3] = Test System: AMES SALMONELLA TYPHIMURIUM, Strain/Indicator: TA98, Metabolic Activation: NONE, Method: PREINCUBATION
[4] = Test System: AMES SALMONELLA TYPHIMURIUM, Strain/Indicator: TA100, Metabolic Activation: NONE, Method: PREINCUBATION

O=[N+]([O-])c1ccc2ccc3c([N+](=O)[O-])cccc3c2c1 was tested, and the mutagenic call (Test System: AMES SALMONELLA TYPHIMURIUM, Strain/Indicator: TA98(1,8-DNP6), Metabolic Activation: NONE, Method: STANDARD PLATE) was “active; positive”, the mutagenic call (Test System: AMES SALMONELLA TYPHIMURIUM, Strain/Indicator: TA98(NR), Metabolic Activation: NONE, Method: STANDARD PLATE) was “active; positive” and the mutagenic call [1] was “active; positive”. The mutagenic call [2] was “active; positive”, the mutagenic call (Test System: AMES SALMONELLA TYPHIMURIUM, Strain/Indicator: YG1021, Metabolic Activation: NONE, Method: STANDARD PLATE) was “active; positive” and the mutagenic call (Test System: AMES SALMONELLA TYPHIMURIUM, Strain/Indicator: YG1024, Metabolic Activation: NONE, Method: STANDARD PLATE) was “active; positive”. For the same compound, the mutagenic call (Test System: AMES SALMONELLA TYPHIMURIUM, Strain/Indicator: YG1026, Metabolic Activation: NONE, Method: STANDARD PLATE) was “active; positive” and the mutagenic call (Test System: AMES SALMONELLA TYPHIMURIUM, Strain/Indicator: YG1029, Metabolic Activation: NONE, Method: STANDARD PLATE) was “active; positive”.
With Nc1nc(N)nc(Cl)n1 the mutagenic call (Test System: AMES SALMONELLA TYPHIMURIUM, Strain/Indicator: TA97, Metabolic Activation: NONE, Method: STANDARD PLATE) was “inactive; negative”, the mutagenic call [1] was “inactive; negative” and the mutagenic call [2] was “inactive; negative”.
With CCOC(=O)C1OC1(C)c1ccccc1 (stereo not given) the mutagenic call (End Point: IN VITRO CHROMOSOMAL ABERRATIONS, Test System: CHINESE HAMSTER OVARY CELLS, Metabolic Activation: NONE) was “active; positive; statistically significant increase, but not dose-related”, the mutagenic call (End Point: IN VITRO CHROMOSOMAL ABERRATIONS, Test System: CHINESE HAMSTER OVARY CELLS, Metabolic Activation: RAT, LIVER, S-9, AROCLOR 1254) was “active; positive” and the mutagenic call (Test System: AMES SALMONELLA TYPHIMURIUM, Strain/Indicator: TA98, Metabolic Activation: HAMSTER, LIVER, S-9, AROCLOR 1254 (10%), Method: PREINCUBATION) was “inactive; negative”. The mutagenic call [3] was “inactive; negative”, the mutagenic call (Test System: AMES SALMONELLA TYPHIMURIUM, Strain/Indicator: TA98, Metabolic Activation: RAT, LIVER, S-9, AROCLOR 1254 (10%), Method: PREINCUBATION) was “inactive; negative” and the mutagenic call (Test System: AMES SALMONELLA TYPHIMURIUM, Strain/Indicator: TA100, Metabolic Activation: HAMSTER, LIVER, S-9, AROCLOR 1254 (10%), Method: PREINCUBATION) was “inactive; negative”. The mutagenic call [4] was “inactive; negative”, the mutagenic call (Test System: AMES SALMONELLA TYPHIMURIUM, Strain/Indicator: TA100, Metabolic Activation: RAT, LIVER, S-9, AROCLOR 1254 (10%), Method: PREINCUBATION) was “inactive; negative” and the mutagenic call (Test System: AMES SALMONELLA TYPHIMURIUM, Strain/Indicator: TA1535, Metabolic Activation: HAMSTER, LIVER, S-9, AROCLOR 1254 (10%), Method: PREINCUBATION) was “inactive; negative”. For the same compound, the mutagenic call (Test System: AMES SALMONELLA TYPHIMURIUM, Strain/Indicator: TA1535, Metabolic Activation: NONE, Method: PREINCUBATION) was “inactive; negative”, the mutagenic call (Test System: AMES SALMONELLA TYPHIMURIUM, Strain/Indicator: TA1535, Metabolic Activation: RAT, LIVER, S-9, AROCLOR 1254 (10%), Method: PREINCUBATION) was “inactive; negative” and the mutagenic call (Test System: AMES SALMONELLA TYPHIMURIUM, Strain/Indicator: TA1537, Metabolic Activation: HAMSTER, LIVER, S-9, AROCLOR 1254 (10%), Method: PREINCUBATION) was “inactive; negative”. For the same compound, the mutagenic call (Test System: AMES SALMONELLA TYPHIMURIUM, Strain/Indicator: TA1537, Metabolic Activation: NONE, Method: PREINCUBATION) was “inactive; negative” and the mutagenic call (Test System: AMES SALMONELLA TYPHIMURIUM, Strain/Indicator: TA1537, Metabolic Activation: RAT, LIVER, S-9, AROCLOR 1254 (10%), Method: PREINCUBATION) was “inactive; negative”.
In the case of OC1c2cccc3c2C2(OC2C1O)c1ccc2ccccc2c1-3 (stereo not given), the mutagenic call (Test System: AMES SALMONELLA TYPHIMURIUM, Strain/Indicator: TA97A, Metabolic Activation: NONE, Method: PREINCUBATION) is reported as “active; positive”, the mutagenic call [3] is reported as “active; positive” and the mutagenic call [4] is reported as “active; positive”.
For c1ccc([C@H]2O[C@@H]2c2ccccc2)cc1, the mutagenic call [2] was “inactive; negative” and the mutagenic call (Test System: AMES SALMONELLA TYPHIMURIUM, Strain/Indicator: TA1535, Metabolic Activation: NONE, Method: STANDARD PLATE) was “inactive; negative”.
